Assay results as given in patent US20240217977A1, “DIAZEPANONE-FUSED PYRIMIDINE COMPOUNDS, COMPOSITIONS AND MEDICINAL APPLICATIONS THEREOF” (Blueprint Medicines Corporation, priority 2021, published 2024).

What was measured:
Type in all cases: cell-based
[1] = target: EGFR (H773insNPH) expressing Ba/F3 stable cell line (Homo sapiens, UniProt P00533, DUP771-773, cells depend on it); assay: Cellular proliferation (Alamar Blue) assay, EGFR (H773insNPH) Ba/F3; conditions: 72 hr incubation, read-out: NPH IC50
Method: (§1) Example 2: Cellular Proliferation (Alamar Blue) Assays
(§2) • 1. EGFR(D770_N771insSVD) expressing Ba/F3 stable cell line • 2. EGFR (A767_dupASV) expressing Ba/F3 stable cell line • 3. A431 cells • 4. EGFR (H773insNPH) expressing Ba/F3 stable cell line • 5. HER2 (A775_G775insYVMA) expressing Ba/F3 stable cell line
(§3) • 1. Seed cells at 5000 for A431 and 15,000 cells for Ba/F3 in 100 μL/well in complete media (for A431: DMEM with 10% FBS and for Ba/F3 cells: RPMI with 10% FBS) in • 96-well tissue culture plate. Leave outer wells without cells for background measurements. Incubate at 37 degree Celsius in 5% C02 humidified incubator for 16-18 hours. • 2. Add 0.025 ml of 5× concentration compound dilution or DMSO control. Final compound concentration range is 10-0.0005 μM prepared in 3-fold serial dilutions. Incubate for 72 hr at 37 degree Celsius in 5% CO2 humidified incubator. • 3. Add 0.0125 ml Alamar Blue™ reagent to each well with multi-channel pipette and tap gently on each side of the plate to mix. Incubate for 3 hours at 37 degree Celsius in 5% CO2 humidified incubator. • 4. Read plates on fluorescence reader (Tecan Spark Control, Device: Spark, Serial #: 1801006040) at 540 nm excitation, 590 nm emission wavelength. • 5. Data analysis was performed using XLfit 5.5.0.5.

[2] = test system: A431 cells; assay: Cellular proliferation (Alamar Blue) assay, A431 cells; conditions: Homo sapiens, A-431, 72 hr incubation
Method: as §1, §2, §3

[3] = target: EGFR(D770_N771insSVD) expressing Ba/F3 stable cell line (Homo sapiens, UniProt P00533, DUP768-770, cells depend on it); assay: Cellular proliferation (Alamar Blue) assay, EGFR(D770_N771insSVD) Ba/F3; conditions: 72 hr incubation, read-out: D770 IC50
Method: as §1, §2, §3

[4] = target: EGFR (A767_dupASV) expressing Ba/F3 stable cell line (Homo sapiens, UniProt P00533, DUP767-769, cells depend on it); assay: Cellular proliferation (Alamar Blue) assay, EGFR (A767_dupASV) Ba/F3; conditions: 72 hr incubation, read-out: A767 IC50
Method: as §1, §2, §3

[5] = target: HER2 (A775_G775insYVMA) expressing Ba/F3 stable cell line (Homo sapiens, UniProt P04626, DUP772-775, cells depend on it); assay: Cellular proliferation (Alamar Blue) assay, HER2 (A775_G775insYVMA) Ba/F3; conditions: 72 hr incubation, read-out: YVMA IC50
Method: as §1, §2, §3

Chain of EGFR(D770_N771insSVD) expressing Ba/F3 stable cell line (P00533 with tags, fused parts or gaps DUP768-770): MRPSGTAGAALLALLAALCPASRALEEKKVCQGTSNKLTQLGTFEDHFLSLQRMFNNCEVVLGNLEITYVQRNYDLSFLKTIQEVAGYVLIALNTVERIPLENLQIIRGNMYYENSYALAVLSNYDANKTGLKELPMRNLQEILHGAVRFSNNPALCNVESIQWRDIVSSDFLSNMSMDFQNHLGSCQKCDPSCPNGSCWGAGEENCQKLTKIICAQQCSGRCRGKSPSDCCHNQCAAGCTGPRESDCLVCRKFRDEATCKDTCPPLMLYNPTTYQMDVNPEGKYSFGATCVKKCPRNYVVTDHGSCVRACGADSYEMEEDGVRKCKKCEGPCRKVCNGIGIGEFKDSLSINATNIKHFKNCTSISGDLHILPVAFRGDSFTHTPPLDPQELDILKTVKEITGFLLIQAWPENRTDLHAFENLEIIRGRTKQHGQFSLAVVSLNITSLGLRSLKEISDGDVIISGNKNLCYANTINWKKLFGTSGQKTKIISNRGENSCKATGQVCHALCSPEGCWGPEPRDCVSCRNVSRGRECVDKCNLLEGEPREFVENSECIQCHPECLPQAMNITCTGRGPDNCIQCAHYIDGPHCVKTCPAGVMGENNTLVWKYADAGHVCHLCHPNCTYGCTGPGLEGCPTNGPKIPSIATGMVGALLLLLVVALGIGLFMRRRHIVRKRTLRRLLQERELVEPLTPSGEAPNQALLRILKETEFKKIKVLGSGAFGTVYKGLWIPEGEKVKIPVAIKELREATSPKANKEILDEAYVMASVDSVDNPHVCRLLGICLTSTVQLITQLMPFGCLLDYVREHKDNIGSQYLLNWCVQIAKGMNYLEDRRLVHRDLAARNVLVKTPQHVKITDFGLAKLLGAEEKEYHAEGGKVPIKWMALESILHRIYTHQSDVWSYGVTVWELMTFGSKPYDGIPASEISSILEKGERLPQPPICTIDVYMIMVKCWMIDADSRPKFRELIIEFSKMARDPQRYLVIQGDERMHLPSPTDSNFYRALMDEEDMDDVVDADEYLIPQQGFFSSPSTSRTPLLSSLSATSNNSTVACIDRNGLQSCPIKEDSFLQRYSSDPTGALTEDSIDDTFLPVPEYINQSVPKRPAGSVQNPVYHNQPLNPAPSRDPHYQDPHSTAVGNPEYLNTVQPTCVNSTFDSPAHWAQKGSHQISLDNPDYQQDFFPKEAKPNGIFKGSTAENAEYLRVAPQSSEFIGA
Chain of EGFR (H773insNPH) expressing Ba/F3 stable cell line (P00533 with tags, fused parts or gaps DUP771-773): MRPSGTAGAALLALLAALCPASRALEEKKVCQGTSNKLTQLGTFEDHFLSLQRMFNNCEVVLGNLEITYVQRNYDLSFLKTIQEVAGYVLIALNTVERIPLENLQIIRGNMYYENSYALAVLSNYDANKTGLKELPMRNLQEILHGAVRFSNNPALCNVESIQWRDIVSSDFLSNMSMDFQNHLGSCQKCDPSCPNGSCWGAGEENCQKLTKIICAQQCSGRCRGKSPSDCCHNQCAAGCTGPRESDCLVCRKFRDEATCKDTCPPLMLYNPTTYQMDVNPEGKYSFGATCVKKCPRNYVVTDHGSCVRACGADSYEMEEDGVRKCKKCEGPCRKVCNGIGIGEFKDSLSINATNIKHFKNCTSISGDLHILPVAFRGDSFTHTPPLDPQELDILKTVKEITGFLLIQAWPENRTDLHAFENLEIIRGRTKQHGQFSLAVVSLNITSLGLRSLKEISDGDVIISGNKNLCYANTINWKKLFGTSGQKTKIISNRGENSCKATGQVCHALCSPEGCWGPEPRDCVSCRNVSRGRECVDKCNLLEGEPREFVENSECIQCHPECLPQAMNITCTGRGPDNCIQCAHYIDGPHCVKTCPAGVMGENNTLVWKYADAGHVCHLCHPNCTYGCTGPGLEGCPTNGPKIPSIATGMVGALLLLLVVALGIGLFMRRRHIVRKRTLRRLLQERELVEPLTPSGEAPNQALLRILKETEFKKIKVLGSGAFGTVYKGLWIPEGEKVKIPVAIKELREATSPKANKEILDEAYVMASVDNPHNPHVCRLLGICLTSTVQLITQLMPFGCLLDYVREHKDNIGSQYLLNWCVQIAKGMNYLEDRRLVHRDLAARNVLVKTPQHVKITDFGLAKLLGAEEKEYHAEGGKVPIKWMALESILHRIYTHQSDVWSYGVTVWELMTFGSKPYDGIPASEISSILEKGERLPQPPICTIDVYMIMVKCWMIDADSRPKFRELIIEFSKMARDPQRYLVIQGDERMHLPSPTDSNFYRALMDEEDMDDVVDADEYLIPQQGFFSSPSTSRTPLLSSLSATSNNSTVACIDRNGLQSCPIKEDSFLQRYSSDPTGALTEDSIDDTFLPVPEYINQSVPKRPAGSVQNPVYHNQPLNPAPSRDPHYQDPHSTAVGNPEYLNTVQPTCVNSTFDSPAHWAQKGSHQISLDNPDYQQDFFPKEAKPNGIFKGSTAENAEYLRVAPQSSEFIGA
Chain of EGFR (A767_dupASV) expressing Ba/F3 stable cell line (P00533 with tags, fused parts or gaps DUP767-769): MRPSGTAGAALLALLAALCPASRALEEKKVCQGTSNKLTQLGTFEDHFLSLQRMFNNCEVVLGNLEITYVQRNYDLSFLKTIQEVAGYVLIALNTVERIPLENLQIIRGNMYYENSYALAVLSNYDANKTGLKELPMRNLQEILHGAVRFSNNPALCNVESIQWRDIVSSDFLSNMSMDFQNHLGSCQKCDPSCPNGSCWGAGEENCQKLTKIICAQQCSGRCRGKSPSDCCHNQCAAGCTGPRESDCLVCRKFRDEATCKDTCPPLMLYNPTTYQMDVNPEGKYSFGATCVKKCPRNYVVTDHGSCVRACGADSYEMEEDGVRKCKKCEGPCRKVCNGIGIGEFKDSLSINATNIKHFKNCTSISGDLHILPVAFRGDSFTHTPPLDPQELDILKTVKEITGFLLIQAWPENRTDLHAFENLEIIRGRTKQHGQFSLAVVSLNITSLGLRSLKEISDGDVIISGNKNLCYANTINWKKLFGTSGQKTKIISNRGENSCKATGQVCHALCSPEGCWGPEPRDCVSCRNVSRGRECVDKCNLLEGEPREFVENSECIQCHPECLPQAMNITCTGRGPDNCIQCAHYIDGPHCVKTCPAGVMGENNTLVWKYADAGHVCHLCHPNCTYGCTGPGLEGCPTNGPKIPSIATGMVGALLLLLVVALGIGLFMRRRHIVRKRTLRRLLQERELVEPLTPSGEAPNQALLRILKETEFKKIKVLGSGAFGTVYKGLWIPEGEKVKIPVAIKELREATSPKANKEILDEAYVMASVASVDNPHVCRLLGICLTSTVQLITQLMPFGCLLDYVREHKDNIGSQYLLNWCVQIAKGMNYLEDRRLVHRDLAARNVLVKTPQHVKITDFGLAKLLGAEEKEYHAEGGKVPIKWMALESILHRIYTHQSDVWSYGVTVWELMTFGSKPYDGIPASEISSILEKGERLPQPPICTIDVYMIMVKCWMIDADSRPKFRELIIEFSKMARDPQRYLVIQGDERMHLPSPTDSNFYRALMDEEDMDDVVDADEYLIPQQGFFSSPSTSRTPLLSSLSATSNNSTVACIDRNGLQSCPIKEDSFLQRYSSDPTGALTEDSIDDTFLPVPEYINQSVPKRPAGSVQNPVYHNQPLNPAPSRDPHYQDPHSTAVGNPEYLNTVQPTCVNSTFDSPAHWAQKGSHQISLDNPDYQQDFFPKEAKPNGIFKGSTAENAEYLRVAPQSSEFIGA
Chain of HER2 (A775_G775insYVMA) expressing Ba/F3 stable cell line (P04626 with tags, fused parts or gaps DUP772-775): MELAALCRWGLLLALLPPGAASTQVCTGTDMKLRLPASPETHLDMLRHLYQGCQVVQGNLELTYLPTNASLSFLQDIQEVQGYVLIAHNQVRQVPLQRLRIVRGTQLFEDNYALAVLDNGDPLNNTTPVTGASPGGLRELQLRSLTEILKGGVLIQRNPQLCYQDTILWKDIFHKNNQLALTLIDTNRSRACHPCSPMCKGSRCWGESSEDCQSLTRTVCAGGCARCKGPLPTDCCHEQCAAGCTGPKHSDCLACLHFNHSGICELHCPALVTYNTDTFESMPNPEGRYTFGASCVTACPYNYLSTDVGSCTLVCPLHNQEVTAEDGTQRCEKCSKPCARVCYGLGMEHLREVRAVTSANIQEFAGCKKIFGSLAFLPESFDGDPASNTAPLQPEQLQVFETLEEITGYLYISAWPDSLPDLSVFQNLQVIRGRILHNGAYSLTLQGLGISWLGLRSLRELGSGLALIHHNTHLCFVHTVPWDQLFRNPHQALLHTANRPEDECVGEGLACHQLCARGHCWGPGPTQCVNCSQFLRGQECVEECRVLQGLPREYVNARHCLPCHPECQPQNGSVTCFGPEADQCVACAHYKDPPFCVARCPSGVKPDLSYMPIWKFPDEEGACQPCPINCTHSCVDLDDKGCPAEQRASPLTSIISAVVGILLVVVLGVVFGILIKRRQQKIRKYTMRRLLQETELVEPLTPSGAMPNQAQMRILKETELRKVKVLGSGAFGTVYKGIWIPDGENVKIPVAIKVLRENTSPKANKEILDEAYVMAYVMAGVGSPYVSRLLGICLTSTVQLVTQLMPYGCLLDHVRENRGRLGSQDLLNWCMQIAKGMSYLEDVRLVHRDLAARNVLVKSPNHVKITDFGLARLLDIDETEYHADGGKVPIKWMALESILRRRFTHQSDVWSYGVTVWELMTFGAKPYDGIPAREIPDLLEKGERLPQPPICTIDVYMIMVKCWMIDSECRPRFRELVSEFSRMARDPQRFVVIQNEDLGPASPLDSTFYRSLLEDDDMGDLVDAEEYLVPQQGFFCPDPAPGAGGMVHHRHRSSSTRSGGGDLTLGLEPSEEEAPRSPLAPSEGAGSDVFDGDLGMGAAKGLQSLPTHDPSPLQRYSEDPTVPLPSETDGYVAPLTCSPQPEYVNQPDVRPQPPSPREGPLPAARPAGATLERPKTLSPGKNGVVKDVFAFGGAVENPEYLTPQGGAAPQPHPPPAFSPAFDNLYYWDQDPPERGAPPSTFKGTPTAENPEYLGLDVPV

| SMILES | GI50 [1] | IC50 [2] | GI50 [3] | GI50 [4] | GI50 [5] |
| --- | --- | --- | --- | --- | --- |
| C=CC(=O)Nc1cccc(N2C(=O)N(Cc3ccccc3)CCc3cnc(Nc4ccc(F)cc4)nc32)c1 [Compound 18, N-(3-(7-benzyl-2-((4-fluorophenyl)amino)-8-oxo-5,6,7,8-tetrahydro-9H-pyrimido[4,5-d][1,3]diazepin-9-yl)phenyl)acrylamide] | 152 nM | 64 nM | 45 nM | 55 nM | 31 nM |
| Cn1cc(Nc2ncc3c(n2)N(c2cccc(NC(=O)/C=C/CN4CCCCC4)c2)C(=O)N(Cc2ccccc2)CC3)c(Cl)n1 [Compound 3, (E)-N-(3-(7-benzyl-2-((3-chloro-1-methyl-1H-pyrazol-4-yl)amino)-8-oxo-5,6,7,8-tetrahydro-9H-pyrimido[4,5-d][1,3]diazepin-9-yl)phenyl)-4-(piperidin-1-yl)but-2-enamide] | 108 nM | > 10000 nM | 48 nM | 42 nM | 31 nM |
| C=CC(=O)Nc1cccc(N2C(=O)N(Cc3ccccc3)CCc3cnc(Nc4ccc(N5CCOCC5)nc4)nc32)c1 [Compound 19, N-(3-(7-benzyl-2-((6-morpholinopyridin-3-yl)amino)-8-oxo-5,6,7,8-tetrahydro-9H-pyrimido[4,5-d][1,3]diazepin-9-yl)phenyl)acrylamide] | 25 nM | > 10000 nM | 14 nM | 10 nM | 24 nM |
| C=CC(=O)Nc1cccc(N2C(=O)N(c3ccccc3)CCc3cnc(Nc4cccnc4F)nc32)c1 [Compound 43, N-(3-{12-[(2-fluoropyridin-3-yl)amino]-8-oxo-7-phenyl-5H,6H,7H,8H,9H-pyrimido[4,5-d][1,3]diazepin-9-yl}phenyl)prop-2-enamide] | 193 nM | > 10000 nM | 239 nM | 146 nM | 1360 nM |
| CN(C)C/C=C/C(=O)Nc1cccc(N2C(=O)N(Cc3ccccc3)CCc3cnc(Nc4cn(C)nc4Cl)nc32)c1 [Compound 1, (E)-N-(3-(7-benzyl-2-((3-chloro-1-methyl-1H-pyrazol-4-yl)amino)-8-oxo-5,6,7,8-tetrahydro-9H-pyrimido[4,5-d][1,3]diazepin-9-yl)phenyl)-4-(dimethylamino)but-2-enamide] | 86 nM | 132 nM | 105 nM | 54 nM | 31 nM |
| C=CC(=O)Nc1cccc(N2C(=O)N(c3ccccc3)CCc3cnc(Nc4ccc(N5CCN(C)CC5)c(C)c4)nc32)c1 [Compound 41, N-(3-(2-((3-methyl-4-(4-methylpiperazin-1-yl)phenyl)amino)-8-oxo-7-phenyl-5,6,7,8-tetrahydro-9H-pyrimido[4,5-d][1,3]diazepin-9-yl)phenyl)acrylamide] | 27 nM | 102 nM | 41 nM | 32 nM | 29 nM |
| Cn1cc(Nc2ncc3c(n2)N(c2cccc(NC(=O)/C=C/CF)c2)C(=O)N(c2ccccc2)CC3)c(Cl)n1 [Compound 33, (E)-N-(3-(2-((3-chloro-1-methyl-1H-pyrazol-4-yl)amino)-8-oxo-7-phenyl-5,6,7,8-tetrahydro-9H-pyrimido[4,5-d][1,3]diazepin-9-yl)phenyl)-4-fluorobut-2-enamide] | 131 nM | > 10000 nM | 239 nM | 128 nM | 602 nM |
| COC/C=C/C(=O)Nc1cccc(N2C(=O)N(Cc3ccccc3)CCc3cnc(Nc4cn(C)nc4Cl)nc32)c1 [Compound 4, (E)-N-(3-(7-benzyl-2-((3-chloro-1-methyl-1H-pyrazol-4-yl)amino)-8-oxo-5,6,7,8-tetrahydro-9H-pyrimido[4,5-d][1,3]diazepin-9-yl)phenyl)-4-methoxybut-2-enamide] | 103 nM | > 10000 nM | 98 nM | 104 nM | 125 nM |
| C/C=C/C(=O)Nc1cccc(N2C(=O)N(Cc3ccccc3)CCc3cnc(Nc4cn(C)nc4Cl)nc32)c1 [Compound 2, (E)-N-(3-(7-benzyl-2-((3-chloro-1-methyl-1H-pyrazol-4-yl)amino)-8-oxo-5,6,7,8-tetrahydro-9H-pyrimido[4,5-d][1,3]diazepin-9-yl)phenyl)but-2-enamide] |  | > 10000 nM | 249 nM | 261 nM | 243 nM |
| CN(C)C/C=C/C(=O)Nc1cccc(N2C(=O)N(Cc3ccccc3)CCc3cnc(Nc4ccc(N5CCN(C)CC5)nc4)nc32)c1 [Compound 17, (E)-N-(3-(7-benzyl-2-((6-(4-methylpiperazin-1-yl)pyridin-3-yl)amino)-8-oxo-5,6,7,8-tetrahydro-9H-pyrimido[4,5-d][1,3]diazepin-9-yl)phenyl)-4-(dimethylamino)but-2-enamide] |  | > 10000 nM | 2770 nM | 1130 nM | 793 nM |

The next compounds have a lower IC50 [2] than those just listed; values first:

| GI50 [1] | IC50 [2] | GI50 [3] | GI50 [4] | GI50 [5] | SMILES |
| --- | --- | --- | --- | --- | --- |
| 32 nM | 34 nM | 38 nM | 33 nM | 15 nM | C=CC(=O)Nc1cccc(N2C(=O)N(Cc3ccccc3)CCc3cnc(Nc4ccc(N5CCN(C)CC5)cc4OC)nc32)c1 [Compound 14, N-(3-(7-benzyl-2-((2-methoxy-4-(4-methylpiperazin-1-yl)phenyl)amino)-8-oxo-5,6,7,8-tetrahydro-9H-pyrimido[4,5-d][1,3]diazepin-9-yl)phenyl)acrylamide] |
| 3 nM | 23 nM | 110 nM | 75 nM | 91 nM | C=CC(=O)Nc1cccc(N2C(=O)N(c3ccc(F)cc3)CCc3cnc(Nc4cn(C)nc4Cl)nc32)c1 [Compound 42, N-(3-(2-((3-chloro-1-methyl-1H-pyrazol-4-yl)amino)-7-(4-fluorophenyl)-8-oxo-5,6,7,8-tetrahydro-9H-pyrimido[4,5-d][1,3]diazepin-9-yl)phenyl)acrylamide] |
| 25 nM | 16 nM | 45 nM | 36 nM | 67 nM | C=CC(=O)Nc1cccc(N2C(=O)N(c3ccccc3)CCc3cnc(Nc4cn(C)nc4Cl)nc32)c1 [Compound 29, N-(3-{2-[(3-chloro-1-methyl-1H-pyrazol-4-yl)amino]-8-oxo-7-phenyl-5H,6H,7H,8H,9H-pyrimido[4,5-d][1,3]diazepin-9-yl}phenyl)prop-2-enamide] |
| 32 nM | 9 nM | 12 nM | 13 nM | 8 nM | C=CC(=O)Nc1cccc(N2C(=O)N(Cc3ccccc3)CCc3cnc(Nc4cn(C5COC5)nc4Cl)nc32)c1 [Compound 28, N-(3-(7-benzyl-2-((3-chloro-1-(oxetan-3-yl)-1H-pyrazol-4-yl)amino)-8-oxo-5,6,7,8-tetrahydro-9H-pyrimido[4,5-d][1,3]diazepin-9-yl)phenyl)acrylamide] |
| 32 nM | 9 nM | 39 nM | 25 nM | 25 nM | C=CC(=O)Nc1cccc(N2C(=O)N(Cc3ccccc3)CCc3cnc(Nc4ccc(N5CCN(C)CC5)nc4)nc32)c1 [Compound 16, N-(3-(7-benzyl-2-((6-(4-methylpiperazin-1-yl)pyridin-3-yl)amino)-8-oxo-5,6,7,8-tetrahydro-9H-pyrimido[4,5-d][1,3]diazepin-9-yl)phenyl)acrylamide] |
| 31 nM | 5 nM | 10 nM | 11 nM | 7 nM | C=CC(=O)Nc1cccc(N2C(=O)N(Cc3ccccc3)CCc3cnc(Nc4cn(C)nc4F)nc32)c1 [Compound 11, N-(3-(7-benzyl-2-((3-fluoro-1-methyl-1H-pyrazol-4-yl)amino)-8-oxo-5,6,7,8-tetrahydro-9H-pyrimido[4,5-d][1,3]diazepin-9-yl)phenyl)acrylamide] |
| 41 nM | 2 nM | 36 nM | 27 nM | 24 nM | C=CC(=O)Nc1cccc(N2C(=O)N(Cc3ccccc3)CCc3cnc(Nc4cn(C5CCN(C)CC5)nc4Cl)nc32)c1 [Compound 7, N-(3-(7-benzyl-2-((3-chloro-1-(1-methylpiperidin-4-yl)-1H-pyrazol-4-yl)amino)-8-oxo-5,6,7,8-tetrahydro-9H-pyrimido[4,5-d][1,3]diazepin-9-yl)phenyl)acrylamide] |
| 7 nM | 2 nM | 10 nM | 12 nM | 12 nM | C=CC(=O)Nc1cccc(N2C(=O)N(Cc3ccccc3)CCc3cnc(Nc4cn(C)nc4Cl)nc32)c1 [Compound 5, N-(3-(7-benzyl-2-((3-chloro-1-methyl-1H-pyrazol-4-yl)amino)-8-oxo-5,6,7,8-tetrahydro-9H-pyrimido[4,5-d][1,3]diazepin-9-yl)phenyl)acrylamide] |
